Columns and labels:
CPP32 [1] = assay: Assay for dATP-dependent activation of CPP32 protease (cleavage of in vitro translated 35S-labeled CPP32 in HeLa S-100); format: biochemical, hamster; settings: 1 mM nucleotide, 30° C., 1 hr
Procedure: The samples were subjected to SDS-PAGE and transferred to a nitrocellulose filter. The filter was exposed to film for 16 hours at room temperature. In FIG. 2B, a 50 μl aliquot of HeLa S-100 (250 μg) was incubated with each aliquot of 6 μl hamster liver nuclei at 37° C. for 2 hr in the presence of 1 mM indicated nucleotide. The DNA was isolated, analyzed by 2% agarose gel electrophoresis and visualized by ethidium bromide staining.
To test the nucleotide specificity for activation of CPP32 and DNA fragmentation, HeLa cell S-100 was incubated with in vitro translated, ^35S-labeled CPP32 in the presence of 1 mM of various nucleotides (FIG. 2A).
A PCR fragment encoding amino acids 29-277 of hamster CPP32 [Wang et al. (1996) supra] was cloned into NdeI and BamHI sites of pET 15b vector (Novagen, Madison, Wis.). The resulting fusion protein of six histidines with hamster CPP32 (amino acids 29-277) was translated in a TNT T7 transcription/translation kit (Promega, Madison, Wis.) in the presence of ^35S-methionine according to the manufacturer's instructions. The translated protein was passed through a 1 ml nickel affirmity column (Qiagen, Chatsworth, Calif.) equilibrated with buffer A. After washing the column with 10 ml of buffer A, the translated CPP32 was eluted with buffer A containing 250 mM imidazole. Human SREBP-2 was translated in a TNT SP6 transcription/translation kit as described [Wang et al. (1995) [Hua et al. (1993) Proc. Natl. Acad. Sci. USA 90, 11603-11607]. Full length human PARP cDNA [Chemey et al. (1987) Proc. Natl. Acad. Sci. USA 84, 8370-8374] was cloned into SmaI and EcoRI sites of pBK-CMV vector (Stratagene, La Jolla, Calif.) and translated in a TNT T7 transcription/translation kit [Promega, Madison, Wis.]. The translated SREBP-2 and PARP (200 μl each) were purified by passing each translation mixture through a 10-ml Sephadex G-25 gel-filtration column equilibrated with buffer A. The translated proteins contained within the exclusion volume of the column were collected.
CPP32 was translated and purified as described above. Aliquot of 3 μl of the in vitro translated CPP32 was incubated with the indicated protein fraction, nucleotides, and 1 mM additional MgCl2 at 30° C. for 1 hour in a final volume of 20 μl of buffer A. At the end of the incubation, 7 μl of 4×SDS sample buffer was added to each reaction. After boiling for 3 min, each sample was subjected to a 15% SDS-polyacrylamide gel electrophoresis (SDS-PAGE). The gel was transferred to a nitrocellulose filter which was subsequently exposed to a Kodak X-OMAT AR X-ray film (Eastman Kodak, Rochester, N.Y.) for 16 hr at room temperature.

CPP32 [2] = assay: Reconstitution of dATP-dependent activation of CPP32 with S-cytosol (sucrose-prepared HeLa cytosol); format: biochemical, human; settings: S-cytosol 50 μg supplemented with 0.2 μg, 1 mM dATP
Procedure: On day 0, Hela cells were set up at 5×10^5 cells per 100 mm dish in medium A as described hereinbelow. On day 2, cells were harvested, collected by centrifugation (1000 g, 10 min, 4° C.). After washed once with ice-cold PBS, the cell pellet was suspended in 5 volumes of ice-cold buffer A containing 250 mM sucrose. The cells were disrupted by douncing 3 times in a 5 ml Wheaton douncer with a pestle polished with sand paper. After microcentrifugation for 5 min at 4° C., the supernatants were further centrifuged at 10^5×g for 30 min in a table top ultracentrifuge (Beckman Instruments, Fullerton, Calif.). The resulting supernatants were designated as S-cytosol. Aliquots of S-cytosol (50 μg) alone (lanes 1 and 2), or supplemented with 0.2 μg Apaf-2 purified through the Mono S column (lanes 3 and 4), were incubated with aliquots of 3 μl in vitro translated, ^35S-labeled CPP32 in the absence (lanes 1, 3) or presence (lanes 2, 4) of 1 mM dATP at 30° C. for 1 hr in a final reaction volume of 20 μl of buffer A. Samples were subjected to SDS-PAGE and transferred to a nitrocellulose filter which were then exposed to film for 16 hr at room temperature.
Human cytochrome c is encoded by a single copy nuclear gene [Evans and Scarpulla (1988) Proc. Natl. Acad. Sci. USA 85, 9625-9629] which is translated on cytoplasmic ribosomes as apocytochrome c. […]

| Molecule | cleavage of 35S-labeled CPP32 (nucleotide specificity) (CPP32 [1]) | dATP-dependent activation of CPP32 in S-cytosol (CPP32 [2]) |
| --- | --- | --- |
| Nc1ncnc2c1ncn2[C@H]1C[C@H](O)[C@@H](COP(=O)(O)OP(=O)(O)OP(=O)(O)O)O1 [dATP, deoxyadenosine-5-triphosphate] | Cleavage occurred |  |
| Apaf-2: 15 kDa factor bound to phosphocellulose column, purified from HeLa S-100, identified as human cytochrome c |  | incapable of initiating the dATP-dependent activation of CPP32 (lanes 1 and 2) unless purified cytochrome c was added |
